Assay results taken from ChEMBL document CHEMBL6177990, “Fluorescence-Coupled Ubiquitination Assay as a High-Throughput Screening Strategy for Novel Cereblon Degraders” (J Med Chem, 2025).
Calls of active or inactive are those of the source. No cut-off for these calls is given here.

Tests used:
[1] = PROTAC activity at human BRD4 BD1/CRBN assessed as ubiquitination level by measuring unmodified protein by […]
[2] = biological target: T1, Protein cereblon/Nucleosome-remodeling factor subunit BPTF (Homo sapiens, UniProt Q12830+Q96SW2); assay: PROTAC activity at human BPTF/CRBN assessed as ubiquitination level by measuring unmodified protein by fluorescence-coupled CRBN-based ubiquitination assay
Target sequence in this assay (Q96SW2 whole entry, looked up, other chains not shown): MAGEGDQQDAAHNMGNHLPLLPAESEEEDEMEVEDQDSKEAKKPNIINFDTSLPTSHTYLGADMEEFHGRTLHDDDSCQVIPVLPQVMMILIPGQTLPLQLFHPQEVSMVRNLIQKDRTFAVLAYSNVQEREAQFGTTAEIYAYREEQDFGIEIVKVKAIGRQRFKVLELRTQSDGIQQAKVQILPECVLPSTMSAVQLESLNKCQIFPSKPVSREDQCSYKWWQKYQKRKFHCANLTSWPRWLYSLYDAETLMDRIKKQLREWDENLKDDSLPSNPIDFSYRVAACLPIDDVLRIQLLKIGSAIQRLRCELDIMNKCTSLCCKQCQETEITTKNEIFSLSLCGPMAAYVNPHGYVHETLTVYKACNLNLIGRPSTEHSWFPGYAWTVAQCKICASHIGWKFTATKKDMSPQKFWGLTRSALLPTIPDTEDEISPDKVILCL

[3] = biological target: T1, Protein cereblon/Nucleosome-remodeling factor subunit BPTF; assay: PROTAC activity at human BPTF/CRBN in human MV4-11 cells assessed as degradation of protein at 5 uM measured after 24 hrs by immunoblotting analysis; assay type: cell-based
Target sequence in this assay (Q96SW2 whole entry, looked up, other chains not shown): as above

[4] = biological target: T1, Protein cereblon/Nucleosome-remodeling factor subunit BPTF; assay: PROTAC activity at human BPTF/CRBN assessed as degradation of protein by measuring unmodified protein by fluorescence-coupled CRBN-based ubiquitination assay
Target sequence in this assay (Q96SW2 whole entry, other chains not shown): as the sequence (Q96SW2 whole entry, looked up, other chains not shown) above

[5] = biological target: T2, Protein cereblon/Chromatin remodeling regulator CECR2 (Homo sapiens) (UniProt Q9BXF3+Q96SW2); assay: PROTAC activity at human CECR2/CRBN assessed as degradation of protein by measuring unmodified protein at 20 uM by fluorescence-coupled CRBN-based ubiquitination assay
T2 sequence (Q96SW2 whole entry, looked up): as the sequence (Q96SW2 whole entry, looked up, other chains not shown) above
T2 sequence (Q9BXF3 whole entry, looked up): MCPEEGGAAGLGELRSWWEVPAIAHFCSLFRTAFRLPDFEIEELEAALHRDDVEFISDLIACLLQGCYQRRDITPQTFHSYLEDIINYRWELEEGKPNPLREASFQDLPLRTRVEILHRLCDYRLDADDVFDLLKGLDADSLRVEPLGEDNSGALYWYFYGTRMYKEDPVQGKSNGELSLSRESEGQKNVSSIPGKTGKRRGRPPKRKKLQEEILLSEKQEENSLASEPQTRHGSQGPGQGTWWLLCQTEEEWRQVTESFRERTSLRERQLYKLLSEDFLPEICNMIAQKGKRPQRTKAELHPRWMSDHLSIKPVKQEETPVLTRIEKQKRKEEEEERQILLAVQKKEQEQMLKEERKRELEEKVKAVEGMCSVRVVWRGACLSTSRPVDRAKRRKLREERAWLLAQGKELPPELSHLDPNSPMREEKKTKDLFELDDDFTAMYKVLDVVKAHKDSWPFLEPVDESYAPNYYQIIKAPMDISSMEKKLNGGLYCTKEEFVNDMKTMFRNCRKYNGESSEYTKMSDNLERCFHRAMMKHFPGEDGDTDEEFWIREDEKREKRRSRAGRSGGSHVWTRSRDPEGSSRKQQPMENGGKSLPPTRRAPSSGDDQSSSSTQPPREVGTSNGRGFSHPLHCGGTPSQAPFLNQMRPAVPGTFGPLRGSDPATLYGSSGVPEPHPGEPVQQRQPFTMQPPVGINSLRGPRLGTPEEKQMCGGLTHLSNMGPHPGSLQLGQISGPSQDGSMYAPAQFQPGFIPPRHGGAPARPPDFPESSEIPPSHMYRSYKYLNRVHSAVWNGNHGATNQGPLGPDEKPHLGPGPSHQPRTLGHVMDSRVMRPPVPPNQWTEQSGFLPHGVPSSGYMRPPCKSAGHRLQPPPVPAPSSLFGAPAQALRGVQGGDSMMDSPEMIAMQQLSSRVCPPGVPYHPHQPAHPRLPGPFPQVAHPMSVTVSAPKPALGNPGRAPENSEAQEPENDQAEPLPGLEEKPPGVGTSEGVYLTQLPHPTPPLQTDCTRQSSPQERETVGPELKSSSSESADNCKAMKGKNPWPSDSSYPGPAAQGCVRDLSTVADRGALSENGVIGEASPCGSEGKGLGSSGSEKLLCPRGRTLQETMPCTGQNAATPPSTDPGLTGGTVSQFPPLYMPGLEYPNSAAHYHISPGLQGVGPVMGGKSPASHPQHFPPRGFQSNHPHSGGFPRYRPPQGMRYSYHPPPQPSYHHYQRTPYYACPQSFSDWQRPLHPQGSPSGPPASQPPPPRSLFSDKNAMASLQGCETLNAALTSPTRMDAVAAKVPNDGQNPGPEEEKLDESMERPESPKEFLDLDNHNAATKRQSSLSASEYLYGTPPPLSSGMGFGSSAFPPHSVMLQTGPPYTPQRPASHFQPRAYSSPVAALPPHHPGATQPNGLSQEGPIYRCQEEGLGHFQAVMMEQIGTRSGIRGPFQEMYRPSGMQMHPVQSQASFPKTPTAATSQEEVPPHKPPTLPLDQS

[6] = Inhibition of human BPTF BRD by HTRF assay
[7] = Binding affinity to human BPTF BRD assessed as dissociation constant
[8] = biological target: T1, Protein cereblon/Nucleosome-remodeling factor subunit BPTF; assay: PROTAC activity at human BPTF/CRBN in human MV4-11 cells assessed as degradation of protein measured after 24 hrs by immunoblotting analysis; assay type: cell-based
Target sequence in this assay (Q96SW2 whole entry, looked up, other chains not shown): as the sequence (Q96SW2 whole entry, looked up, other chains not shown) above

[9] = biological target: T2, Protein cereblon/Chromatin remodeling regulator CECR2 (Homo sapiens); assay: PROTAC activity at human CECR2/CRBN in human MV4-11 cells assessed as degradation of protein at 20 uM measured after 24 hrs by immunoblotting analysis; assay type: cell-based
[10] = biological target: Protein cereblon/Bromodomain-containing protein 9 (Homo sapiens) (UniProt Q9H8M2+Q96SW2); assay: PROTAC activity at human BRD9/CRBN in human MV4-11 cells assessed as degradation of protein at 20 uM measured after 24 hrs by immunoblotting analysis; assay type: cell-based
Chain of Protein cereblon/Bromodomain-containing protein 9 (Homo sapiens) (Q96SW2 whole entry, looked up): as the sequence (Q96SW2 whole entry, looked up, other chains not shown) above
Chain of Protein cereblon/Bromodomain-containing protein 9 (Homo sapiens) (Q9H8M2 whole entry, looked up): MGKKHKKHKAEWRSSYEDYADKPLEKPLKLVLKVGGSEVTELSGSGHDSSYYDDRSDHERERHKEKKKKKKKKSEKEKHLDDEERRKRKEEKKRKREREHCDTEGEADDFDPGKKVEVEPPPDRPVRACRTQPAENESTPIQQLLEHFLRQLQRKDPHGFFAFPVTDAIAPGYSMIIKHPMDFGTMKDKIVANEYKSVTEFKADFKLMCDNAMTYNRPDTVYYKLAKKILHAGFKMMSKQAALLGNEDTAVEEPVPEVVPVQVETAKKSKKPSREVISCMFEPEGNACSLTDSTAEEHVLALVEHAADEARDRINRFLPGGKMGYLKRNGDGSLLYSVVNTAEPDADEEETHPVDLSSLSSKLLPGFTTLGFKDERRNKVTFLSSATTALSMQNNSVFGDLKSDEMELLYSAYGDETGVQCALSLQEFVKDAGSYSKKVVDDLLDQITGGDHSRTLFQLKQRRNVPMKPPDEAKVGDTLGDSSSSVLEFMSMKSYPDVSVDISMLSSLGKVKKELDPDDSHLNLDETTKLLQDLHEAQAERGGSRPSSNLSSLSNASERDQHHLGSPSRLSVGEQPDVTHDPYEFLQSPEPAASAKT

[11] = biological target: Protein cereblon/Histone acetyltransferase KAT2B (Homo sapiens) (UniProt Q92831+Q96SW2); assay: PROTAC activity at human PCAF/CRBN in human MV4-11 cells assessed as degradation of protein at 20 uM measured after 24 hrs by immunoblotting analysis; assay type: cell-based
Chain of Protein cereblon/Histone acetyltransferase KAT2B (Homo sapiens) (Q92831 whole entry, looked up): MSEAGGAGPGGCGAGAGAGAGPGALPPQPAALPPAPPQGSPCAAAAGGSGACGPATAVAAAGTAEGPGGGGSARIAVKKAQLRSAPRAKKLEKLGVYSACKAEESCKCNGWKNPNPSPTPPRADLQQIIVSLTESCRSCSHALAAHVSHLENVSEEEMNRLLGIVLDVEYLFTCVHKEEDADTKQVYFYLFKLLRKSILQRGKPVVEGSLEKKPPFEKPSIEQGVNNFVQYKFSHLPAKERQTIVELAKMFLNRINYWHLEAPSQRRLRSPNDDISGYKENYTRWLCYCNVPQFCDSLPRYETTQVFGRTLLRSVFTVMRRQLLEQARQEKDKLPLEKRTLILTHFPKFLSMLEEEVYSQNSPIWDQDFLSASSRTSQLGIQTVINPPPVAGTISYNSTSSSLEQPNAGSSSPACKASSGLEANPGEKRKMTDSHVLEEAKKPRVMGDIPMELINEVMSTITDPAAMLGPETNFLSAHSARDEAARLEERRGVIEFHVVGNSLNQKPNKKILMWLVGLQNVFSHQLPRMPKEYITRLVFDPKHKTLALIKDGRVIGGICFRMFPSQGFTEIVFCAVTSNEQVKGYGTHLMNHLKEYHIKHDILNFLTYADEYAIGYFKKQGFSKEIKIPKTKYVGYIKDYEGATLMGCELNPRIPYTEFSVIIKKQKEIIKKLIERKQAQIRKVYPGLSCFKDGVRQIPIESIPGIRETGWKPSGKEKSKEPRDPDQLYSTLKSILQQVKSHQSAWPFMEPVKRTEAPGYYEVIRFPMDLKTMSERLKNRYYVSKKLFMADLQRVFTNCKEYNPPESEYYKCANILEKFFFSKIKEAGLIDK
Chain of Protein cereblon/Histone acetyltransferase KAT2B (Homo sapiens) (Q96SW2 whole entry, looked up): as the sequence (Q96SW2 whole entry, looked up, other chains not shown) above

MV4-11 = assay: Antiproliferative activity against human MV4-11 cells assessed as cell viability measured after 6 days by CellTiter-Glo kit; assay type: functional, cell-based; settings: MV4-11, 144 h
[12] = biological target: T1, Protein cereblon/Nucleosome-remodeling factor subunit BPTF; assay: PROTAC activity at human BPTF/CRBN in human MV4-11 cells assessed as degradation of protein pretreated with MLN4924 for 12hrs followed by measured after 24 hrs of compound treatment by immunoblotting analysis; assay type: cell-based
Target sequence in this assay (Q96SW2 whole entry, looked up, other chains not shown): as above

[13] = biological target: T1, Protein cereblon/Nucleosome-remodeling factor subunit BPTF; assay: PROTAC activity at human BPTF/CRBN in human MV4-11 cells assessed as degradation of protein measured after 24 hrs in presence of pomalidomide by immunoblotting analysis; assay type: cell-based
Target sequence in this assay (Q96SW2 whole entry, looked up, other chains not shown): as above

[14] = biological target: T1, Protein cereblon/Nucleosome-remodeling factor subunit BPTF; assay: PROTAC activity at human BPTF/CRBN assessed as ubiquitination level by measuring unmodified protein in presence of pomalidomide by fluorescence-coupled CRBN-based ubiquitination assay
Target sequence in this assay (Q96SW2 whole entry, looked up, other chains not shown): as above

[15] = biological target: T2, Protein cereblon/Chromatin remodeling regulator CECR2 (Homo sapiens); assay: PROTAC activity at human CECR2/CRBN assessed as degradation of protein by measuring unmodified protein at 10 uM by fluorescence-coupled CRBN-based ubiquitination assay

## Cc1sc2c(c1C)C(c1ccc(Cl)cc1)=N[C@@H](CC(=O)Nc1ccc(OCCOCCOCCOCCNc3cccc4c3C(=O)N(C3CCC(=O)NC3=O)C4=O)cc1)c1nnc(C)n1-2 (stereo partly specified)
[1]
  IC50: 1250 nM

## CCCNc1cc(-c2ccc(OCCCN3CCN(C(=O)COc4cccc5c4C(=O)N(C4CCC(=O)N(C)C4=O)C5=O)CC3)c(C#N)c2)nc(S(C)(=O)=O)n1 (stereo unspecified)
[2]
  Activity: inactive
[3]
  Activity: inactive

## Cc1sc2c(c1C)C(c1ccc(Cl)cc1)=N[C@@H](CC(=O)NCCNc1cccc3c1C(=O)N(C1CCC(=O)NC1=O)C3=O)c1nnc(C)n1-2 (stereo partly specified)
[1]
  IC50: 280 nM

## CCCNc1cc(-c2ccc(OCCCN3CCN(C(=O)COc4cccc5c4C(=O)N(C4CCC(=O)NC4=O)C5=O)CC3)c(C#N)c2)nc(S(C)(=O)=O)n1 (stereo unspecified)
[1]
  IC50: 680 nM
[2]
  Activity: Active
[4]
  DC50: 35.1 nM
[5]
  Activity: inactive
[6]
  IC50: 150 nM
[7]
  Kd: 310 nM
[8]
  Activity: Dose-dependent-effect
[9]
  Activity: inactive
[10]
  Activity: inactive
[11]
  Activity: inactive
MV4-11
  IC50: 2710 nM
[12]
  Activity: inactive
[13]
  Activity: inactive
[14]
  Activity: inactive

## CCCNc1cc(-c2ccc(OCCCN3CCN(C(=O)C4CN(c5cccc6c5C(=O)N(C5CCC(=O)NC5=O)C6=O)C4)CC3)c(C#N)c2)nc(S(C)(=O)=O)n1 (stereo unspecified)
[2]
  Activity: Active
[4]
  DC50: 44.6 nM
[5]
  Activity: inactive

## CCCNc1cc(-c2ccc(OCCCN3CCN(C(=O)C4CCN(c5cccc6c5C(=O)N(C5CCC(=O)NC5=O)C6=O)CC4)CC3)c(C#N)c2)nc(S(C)(=O)=O)n1 (stereo unspecified)
[2]
  Activity: Active
[5]
  Activity: Active

## CCCNc1cc(-c2ccc(OCCCN3CCN(C(=O)CCCCNc4cccc5c4C(=O)N(C4CCC(=O)NC4=O)C5=O)CC3)c(C#N)c2)nc(S(C)(=O)=O)n1 (stereo unspecified)
[15]
  Activity: inactive

## CCCNc1cc(-c2ccc(OCCCN3CCN(C(=O)CCCCCOc4cccc5c4C(=O)N(C4CCC(=O)NC4=O)C5=O)CC3)c(C#N)c2)nc(S(C)(=O)=O)n1 (stereo unspecified)
[15]
  Activity: inactive

## COC(=O)C[C@@H]1N=C(c2ccc(Cl)cc2)c2c(sc(C(=O)NCCCCCCCCNC(=O)COc3cccc4c3C(=O)N(C3CCC(=O)NC3=O)C4=O)c2C)-n2c(C)nnc21 (stereo partly specified)
[1]
  IC50: 1150 nM
